The text below walks through data of patent US20230150960A1, “COMPOSITIONS AND METHODS OF USING CYANINE DYES TO TARGET CANCER AND MITOCHONDRIA” (Thomas Jefferson University, priority 2020, published 2023).

“Also recorded” adds a separate entry of the source.

One data set deals with MIA-PaCa2 cancer cells. Put plainly: Combination of JAC-B2 or JAC-R2 with another drug, cell survival by Pico Green, BLISS/HSA plot analyses. It counts as cell-based. Here is the method:
(§1) We analyzed cell survival using Pico Green and determined the combinational effects through BLISS/HSA plot analyses.
MIA-PaCa2 pancreatic cancer cells were purchased from the American Type Culture Collection (ATCC, Manassas, VA, USA) and grown in normal culture media (DMEM media, 10% FBS, 1% L-glutamine, 1% Penicillin-Streptomycin) at normal conditions (37° C., 5% CO2). Cells were trypsinized and plated at 1 thousand cells per well and in 96-well plates. […] Cell viability was assessed using pico-green dsDNA measurement and IC50S were calculated using GraphPad® (GraphPad Software, San Diego, CA, USA) by employing normalized nonlinear regression models. A summary of the combined efficacy of a compound of Formula I and an additional therapeutic agent is show in Table 2.

A further data set relates to ASPC1 cancer cells. The data set can be described thus: Combination of JAC-B2 with another drug, cell survival by Pico Green, BLISS/HSA plot analyses. It counts as cell-based. The settings on record: combined with PDDX04, 5 days, FIG. 7P.
Text: as §1

Another data set deals with HT29 cancer cells. The data set is described as above. It counts as cell-based. The settings on record: combined with Cobimetinib, 5 days, FIG. 7O.
Text: as §1

Data set [1] is described as follows: Solubility of glycerol-containing formulations (post vortexing, 30 min and overnight at 18° C.). It counts as physicochemical. As to conditions: glycerol-containing formulation, compound 2 mg/mL; for solubility at 30 min / solubility: 18 °C; for solubility at 30 min: after 30 minutes incubation at 18° C.; for solubility: overnight incubation at 18° C.; for solubility at 30 s: post vortexing. On the procedure:
Tables 3A, 3B, and 3C describe solubility experiments conducted with the indicated compounds under the listed conditions. Vortexing was conducted using a Denville Vortexer 59 (Denville Scientific Inc.), at maximum speed for 30 seconds. As used herein, the term overnight refers to a period lasting at least about 12-24 hours.

Data set [2] in a line: Solubility of BSA-containing formulations (post vortexing, 30 min and overnight at 18° C.). It counts as physicochemical. The settings on record: BSA-containing formulation, aqueous with cosolvent or surfactant or cyclodextrin, compound 2 mg/mL; for solubility at 30 min / solubility: 18 °C; for solubility at 30 min: after 30 minutes incubation at 18° C.; for solubility: overnight incubation at 18° C.; for solubility at 30 s: post vortexing. On the procedure:
Vortexing was conducted using a Denville Vortexer 59 (Denville Scientific Inc.), at maximum speed for 30 seconds. As used herein, the term overnight refers to a period lasting at least about 12-24 hours.

Where [3] appears, read: combined with Azacitidine, 5 days, MIA-PaCa2, FIG. 7J (JAC-B2), FIG. 7L (JAC-R2).
Where [4] appears, read: combined with Decitabine, 5 days, MIA-PaCa2, FIG. 7I (JAC-B2), FIG. 7K (JAC-R2).
Where [5] appears, read: combined with Paclitaxel, 5 days, FIG. 7F (JAC-B2), FIG. 7M (JAC-R2).

As for `CCN1/C(=C/C=C/C=C/c2sc3ccccc3[n+]2CC)Sc2ccccc21` [JAC-B2, Dithiazanine Iodide], the Effect of combination result is “Synergistic” in the data set with MIA-PaCa2 cancer cells (combined with 5-Fluorouracil, 5 days, FIG. 7N); “Synergistic” with MIA-PaCa2 cancer cells (combined with Abemaciclib, 5 days, MIA-PaCa2, FIG. 7H); “Synergistic” with MIA-PaCa2 cancer cells (combined with Adavosertib, 5 days, MIA-PaCa2, FIG. 7R); “Synergistic” in the data set with MIA-PaCa2 cancer cells (setting [3]); “Synergistic” in the data set on MIA-PaCa2 cancer cells (combined with Colchicine, 5 days, MIA-PaCa2, FIG. 7Q); “Synergistic” with MIA-PaCa2 cancer cells (setting [4]). For the same compound, the Effect of combination entry in the data set with MIA-PaCa2 cancer cells (combined with Everolimus, 5 days, MIA-PaCa2, FIG. 7E) is “Additive”; with MIA-PaCa2 cancer cells (combined with Gemcitabine, 5 days, MIA-PaCa2, FIG. 7A), “antagonistic response; also recorded: Antagonistic/Additive”; in the data set on MIA-PaCa2 cancer cells (combined with Hydralazine, no figure), “Antagonistic/Additive”; with MIA-PaCa2 cancer cells (combined with Irinotecan, 5 days, MIA-PaCa2, FIG. 7C) it was “Additive”; in the data set on MIA-PaCa2 cancer cells (combined with Metformin, no figure) it was “Additive”; in the data set on MIA-PaCa2 cancer cells (combined with Methotrexate, 5 days, MIA-PaCa2, FIG. 7B), “Additive”. The Effect of combination entry in the data set with MIA-PaCa2 cancer cells (combined with Olaparib, 5 days, MIA-PaCa2, FIG. 7D) is listed as “antagonistic response; also recorded: Antagonistic/Additive”; in the data set on MIA-PaCa2 cancer cells (combined with Oxaliplatin, 5 days, MIA-PaCa2, FIG. 7G), “Synergistic”; in the data set with MIA-PaCa2 cancer cells (setting [5]), “Synergistic”; with MIA-PaCa2 cancer cells (combined with VE-821, 5 days, MIA-PaCa2, FIG. 7S) it was “Synergistic”; with ASPC1 cancer cells it was “Synergistic”; in the data set with HT29 cancer cells, “Synergistic”.
On to `CCN1/C(=C/C(C)=C/c2sc3ccccc3[n+]2CC)Sc2ccccc21` [JAC-B2.5, 3,3′-Diethyl-9-methylthiacarbocyanine iodide], for which the solubility at 30 min in data set [1] (aqueous with cosolvent or surfactant or cyclodextrin, 10% glycerol, read-out: Solubility of glycerol-containing formulations after 30 min incubation at 18° C., 10%) is under 2000 µg/mL; in data set [1] (aqueous with cosolvent or surfactant or cyclodextrin, 20% glycerol, read-out: Solubility of glycerol-containing formulations after 30 min incubation at 18° C., 20%), under 2000 µg/mL; in data set [1] (aqueous with cosolvent or surfactant or cyclodextrin, 30% glycerol, read-out: Solubility of glycerol-containing formulations after 30 min incubation at 18° C., 30%), under 2000 µg/mL; in data set [1] (aqueous with cosolvent or surfactant or cyclodextrin, 40% glycerol, read-out: Solubility of glycerol-containing formulations after 30 min incubation at 18° C., 40%), under 2000 µg/mL; in data set [1] (aqueous with cosolvent or surfactant or cyclodextrin, 50% glycerol, read-out: Solubility of glycerol-containing formulations after 30 min incubation at 18° C., 50%) it was under 2000 µg/mL; in data set [1] (0% glycerol, read-out: Solubility of glycerol-containing formulations after 30 min incubation at 18° C., 0%) it was under 2000 µg/mL. In addition, the solubility at 30 min was under 2000 µg/mL in data set [2] (BSA 40 mg/mL, read-out: Solubility of BSA-containing formulations after 30 min incubation at 18° C., 40 mg/mL); under 2000 µg/mL in data set [2] (BSA 60 mg/mL, read-out: Solubility of BSA-containing formulations after 30 min incubation at 18° C., 60 mg/mL); under 2000 µg/mL in data set [2] (BSA 80 mg/mL, read-out: Solubility of BSA-containing formulations after 30 min incubation at 18° C., 80 mg/mL); under 2000 µg/mL in data set [2] (BSA 100 mg/mL, read-out: Solubility of BSA-containing formulations after 30 min incubation at 18° C., 100 mg/mL). Also, the solubility is under 2000 µg/mL in data set [1] (aqueous with cosolvent or surfactant or cyclodextrin, 10% glycerol, read-out: Solubility of glycerol-containing formulations after overnight incubation at 18° C., 10%); under 2000 µg/mL in data set [1] (aqueous with cosolvent or surfactant or cyclodextrin, 20% glycerol, read-out: Solubility of glycerol-containing formulations after overnight incubation at 18° C., 20%); under 2000 µg/mL in data set [1] (aqueous with cosolvent or surfactant or cyclodextrin, 30% glycerol, read-out: Solubility of glycerol-containing formulations after overnight incubation at 18° C., 30%); under 2000 µg/mL in data set [1] (aqueous with cosolvent or surfactant or cyclodextrin, 40% glycerol, read-out: Solubility of glycerol-containing formulations after overnight incubation at 18° C., 40%); under 2000 µg/mL in data set [1] (aqueous with cosolvent or surfactant or cyclodextrin, 50% glycerol, read-out: Solubility of glycerol-containing formulations after overnight incubation at 18° C., 50%); under 2000 µg/mL in data set [1] (0% glycerol, read-out: Solubility of glycerol-containing formulations after overnight incubation at 18° C., 0%). Moreover, the solubility was under 2000 µg/mL in data set [2] (BSA 40 mg/mL, read-out: Solubility of BSA-containing formulations after overnight incubation at 18° C., 40 mg/mL); under 2000 µg/mL in data set [2] (BSA 60 mg/mL, read-out: Solubility of BSA-containing formulations after overnight incubation at 18° C., 60 mg/mL); under 2000 µg/mL in data set [2] (BSA 80 mg/mL, read-out: Solubility of BSA-containing formulations after overnight incubation at 18° C., 80 mg/mL); under 2000 µg/mL in data set [2] (BSA 100 mg/mL, read-out: Solubility of BSA-containing formulations after overnight incubation at 18° C., 100 mg/mL). Further, the solubility at 30 s in data set [1] (aqueous with cosolvent or surfactant or cyclodextrin, 10% glycerol, read-out: Solubility of glycerol-containing formulations post vortexing, 10%) was under 2000 µg/mL; in data set [1] (aqueous with cosolvent or surfactant or cyclodextrin, 20% glycerol, read-out: Solubility of glycerol-containing formulations post vortexing, 20%), under 2000 µg/mL; in data set [1] (aqueous with cosolvent or surfactant or cyclodextrin, 30% glycerol, read-out: Solubility of glycerol-containing formulations post vortexing, 30%) it was under 2000 µg/mL; in data set [1] (aqueous with cosolvent or surfactant or cyclodextrin, 40% glycerol, read-out: Solubility of glycerol-containing formulations post vortexing, 40%) it was under 2000 µg/mL; in data set [1] (aqueous with cosolvent or surfactant or cyclodextrin, 50% glycerol, read-out: Solubility of glycerol-containing formulations post vortexing, 50%) it was under 2000 µg/mL; in data set [1] (0% glycerol, read-out: Solubility of glycerol-containing formulations post vortexing, 0%), under 2000 µg/mL. Moreover, the solubility at 30 s was under 2000 µg/mL in data set [2] (BSA 40 mg/mL, read-out: Solubility of BSA-containing formulations post vortexing, 40 mg/mL); under 2000 µg/mL in data set [2] (BSA 60 mg/mL, read-out: Solubility of BSA-containing formulations post vortexing, 60 mg/mL); under 2000 µg/mL in data set [2] (BSA 80 mg/mL, read-out: Solubility of BSA-containing formulations post vortexing, 80 mg/mL); under 2000 µg/mL in data set [2] (BSA 100 mg/mL, read-out: Solubility of BSA-containing formulations post vortexing, 100 mg/mL).
For the compound `CCN1/C(=C/C=C/C=C/c2oc3ccccc3[n+]2CC)Oc2ccccc21` [JAC-R2, 3′,3′-Diethyloxadicarbocyanine iodide], the Effect of combination result in the data set with MIA-PaCa2 cancer cells (setting [3]), with MIA-PaCa2 cancer cells (setting [4]) and in the data set with MIA-PaCa2 cancer cells (setting [5]) was “Synergistic” in each case.
